From BindingDB's records for doi:10.1021/jm701437d (The Institute of Cancer Research, 2008)

Biological target: not listed separately
Assay: Inhibition of GSK3-beta in human PC3M cells by ELISA

Row | IC50 [nM] | Compound
1 | 15000 | NC1CCN(c2ncnc3[nH]ccc23)CC1
2 | 600 | NC1(c2ccc(Cl)cc2)CCN(c2ncnc3[nH]ccc23)CC1
3 | 1700 | NCC1(Cc2ccc(Cl)cc2)CCN(c2ncnc3nc[nH]c23)CC1
4 | 1400 | NCC1(c2ccc(Cl)cc2)CCN(c2ccnc3[nH]ccc23)CC1
5 | 2000 | NC(c1ccc(Cl)cc1)C1CCN(c2ccnc3[nH]ccc23)CC1 (centres undefined)
6 | > 30000 | NC(c1ccccc1)C1CCN(c2ncnc3[nH]ccc23)CC1 (centres undefined)
7 | 1300 | NCC1(c2ccc(Cl)cc2)CCN(c2ncnc3nc[nH]c23)CC1
8 | 11000 | NCC1CCN(c2ncnc3[nH]ccc23)CC1
9 | > 30000 | NC1CCN(c2ncnc3n[nH]cc23)CC1
10 | > 30000 | NCC1CCN(c2ncnc3n[nH]cc23)CC1

Biological target: Glycogen synthase kinase-3 beta (Homo sapiens, UniProt P49841)
Sequence (P49841 whole entry): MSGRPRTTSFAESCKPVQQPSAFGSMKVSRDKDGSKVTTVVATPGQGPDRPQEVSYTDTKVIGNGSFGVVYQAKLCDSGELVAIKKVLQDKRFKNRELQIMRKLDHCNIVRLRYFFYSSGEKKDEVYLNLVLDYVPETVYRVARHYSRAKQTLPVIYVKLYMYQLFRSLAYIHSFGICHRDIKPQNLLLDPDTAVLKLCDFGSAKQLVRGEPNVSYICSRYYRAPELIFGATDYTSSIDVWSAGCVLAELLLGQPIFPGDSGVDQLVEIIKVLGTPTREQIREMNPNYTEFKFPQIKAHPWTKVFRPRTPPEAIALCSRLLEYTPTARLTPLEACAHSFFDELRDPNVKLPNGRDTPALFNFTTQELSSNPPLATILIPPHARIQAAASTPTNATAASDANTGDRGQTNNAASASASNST
Assay: Inhibition of GSK3-beta in human PC3M cells by ELISA

Row | IC50 [nM] | Compound
11 | 8100 | O=c1cc(N2CCOCC2)oc2c(-c3ccccc3)cccc12
12 | 590 | NCC1(c2ccc(Cl)cc2)CCN(c2ncnc3[nH]ccc23)CC1
13 | 590 | NC(c1ccc(Cl)cc1)C1CCN(c2ccnc3[nH]ccc23)CC1 (centres undefined)
14 | 1400 | NCC1(Cc2ccc(Cl)cc2)CCN(c2ncnc3[nH]ccc23)CC1
